Source: patent publication US11773078B2, “Furin inhibitors” (Glaxosmithkline Intellectual Property Development Limited, priority 2018, dated 2023)

Assays:
[1] = biological target: T1, Furin (108-574-Tev-Flag-His) enzyme (Homo sapiens, UniProt P09958); test: Furin enzyme assay; assay type: biochemical
T1 construct: Furin (108-574-Tev-Flag-His) enzyme was expressed and purified from CHO cells; TEV cleavage site (C); FLAG (C); His (C); made in house; host or cells: CHO cells
Outline: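 CHO-expressed, purified furin construct at 40 pM in 100 mM HEPES pH7.5, 1 mM CaCl2, 0.005% Triton X-100. Eleven-point 1:3 series, 0.00017–10 μM final, incubated 2 h at room temperature and read on Envision. pXC50 from four-parameter fit.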

[2] = biological target: T2, furin (endogenous protease) in U20S cells (Homo sapiens, UniProt P09958); test: Furin cell-based assay (image-based, Golgi-targeted GFP with BMP10 furin/PCSK cleavage site); settings: 24-hour incubation, read-out: furin golgi cell pXC50 (converted);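 also: Read-out is mean GFP fluorescence of Golgi puncta per cell by high-content imaging, retained when furin inhibited, over an eleven-point 0.00017–10 µM series, four-parameter fit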
T2 construct: the endogenous protease cleaves GFP; endogenous in cells; host or cells: U2OS cells transduced with a BacMam reporter
T2 sequence (P09958 108-794): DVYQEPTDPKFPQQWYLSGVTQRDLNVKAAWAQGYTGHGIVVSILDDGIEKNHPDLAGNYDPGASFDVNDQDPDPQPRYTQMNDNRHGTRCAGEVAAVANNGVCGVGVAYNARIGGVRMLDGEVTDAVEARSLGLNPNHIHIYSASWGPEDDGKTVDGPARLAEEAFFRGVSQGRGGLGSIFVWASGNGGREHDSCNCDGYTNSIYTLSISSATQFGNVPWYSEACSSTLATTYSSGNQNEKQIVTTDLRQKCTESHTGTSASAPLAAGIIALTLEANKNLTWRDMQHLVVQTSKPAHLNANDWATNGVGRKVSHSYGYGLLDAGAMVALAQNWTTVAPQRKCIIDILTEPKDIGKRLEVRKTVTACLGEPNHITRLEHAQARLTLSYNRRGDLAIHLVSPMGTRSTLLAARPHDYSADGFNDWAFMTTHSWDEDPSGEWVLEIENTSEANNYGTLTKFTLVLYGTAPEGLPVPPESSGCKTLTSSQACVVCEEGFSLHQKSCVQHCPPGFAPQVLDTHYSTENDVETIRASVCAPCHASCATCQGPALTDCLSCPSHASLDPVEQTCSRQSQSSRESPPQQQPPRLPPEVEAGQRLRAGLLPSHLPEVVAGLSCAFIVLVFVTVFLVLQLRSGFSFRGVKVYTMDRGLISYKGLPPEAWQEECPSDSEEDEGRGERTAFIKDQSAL

T1 sequence (P09958 108-574): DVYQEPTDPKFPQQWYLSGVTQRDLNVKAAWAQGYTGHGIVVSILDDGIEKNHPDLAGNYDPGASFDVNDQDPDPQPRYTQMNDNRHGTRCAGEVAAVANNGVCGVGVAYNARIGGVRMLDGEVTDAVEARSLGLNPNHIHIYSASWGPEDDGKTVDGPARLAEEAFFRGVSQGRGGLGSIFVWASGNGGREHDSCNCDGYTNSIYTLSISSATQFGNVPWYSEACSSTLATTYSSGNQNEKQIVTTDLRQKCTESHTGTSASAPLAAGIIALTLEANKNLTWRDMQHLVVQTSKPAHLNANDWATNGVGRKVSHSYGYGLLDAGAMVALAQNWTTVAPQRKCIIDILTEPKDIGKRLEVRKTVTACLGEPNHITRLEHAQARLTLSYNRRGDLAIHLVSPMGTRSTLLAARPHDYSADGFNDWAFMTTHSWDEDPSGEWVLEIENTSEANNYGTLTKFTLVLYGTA

SMILES | furin enzyme pIC50 [1] | EC50 [2] | IC50 ([1]; read-out: furin enzyme pIC50 (converted))
CNC(=O)NCC1CCN(Cc2cc(Oc3cnc(N4CCN(CC(C)C(=O)O)CC4)nc3)cc(-c3cc(Cl)cc(Cl)c3)c2)CC1 (stereo not shown) [Example 292, 3-(4-(5-((3′,5′-dichloro-5-((4-((3-methylureido)methyl)piperidin-1-yl)methyl)-[1,1′-biphenyl]-3-yl)oxy)pyrimidin-2-yl)piperazin-1-yl)-2-methylpropanoic acid] | 9.4 | 50.1 nM | –
CC(=O)NCC1CCN(Cc2cc(Oc3ccc(N4CCN(CCS(C)(=O)=O)CC4)nc3)cc(-c3cc(Cl)cc(Cl)c3)c2)CC1 [Example 293, N-((1-((3′,5′-dichloro-5-((6-(4-(2-(methylsulfonyl)ethyl)piper-1-yl)pyridin-3-yl)oxy)-[1,1′-biphenyl]-3-yl)methyl)piperidin-4-yl)methyl)acetamide] | 8.2 | 158 nM | –
CC(=O)NCC1CCN(Cc2cc(Oc3cnc(N4CC5CCC(C4)N5CCC(=O)O)nc3)nc(-c3cc(Cl)cc(Cl)c3)c2)CC1 [Example 296, 3-(3-(5-((4-((4-(acetamidomethyl)piperidin-1-yl)methyl)-6-(3,5-dichlorophenyl)pyridin-2-yl)oxy)pyrimidin-2-yl)-3,8-diazabicyclo[3.2.1]octan-8-yl)propanoic acid] | 10.6 | 10 nM | –
C[C@@H](O)CN1CCN(c2ccc(Oc3cc(CN4CCC(CC(=O)O)CC4)cc(-c4cc(Cl)cc(Cl)c4)n3)cn2)CC1 [Example 299, (R)-2-(1-((2-(3,5-dichlorophenyl)-6-((6-(4-(2-hydroxypropyl)piperazin-1-yl)pyridin-3-yl)oxy)pyridin-4-yl)methyl)piperidin-4-yl)acetic acid] | 8.5 | 31.6 nM | –
O=C(O)CC1CCN(Cc2cc(Oc3ccc(N4CCN(CCO)CC4)nc3)nc(-c3cc(Cl)cc(Cl)c3)c2)CC1 [Example 300, 2-(1-((2-(3,5-dichlorophenyl)-6-((6-(4-(2-hydroxyethyl)piperazin-1-yl)pyridin-3-yl)oxy)pyridin-4-yl)methyl)piperidin-4-yl)acetic acid] | 9.1 | 20 nM | –
CNC(=O)OCC1CCN(Cc2cc(Oc3ccc(N4CCN(C[C@@H](C)O)CC4)nc3)nc(-c3cc(Cl)cc(Cl)c3)c2)CC1 [Example 305, (R)-(1-((2-(3,5-dichlorophenyl)-6-((6-(4-(2-hydroxypropyl)piperazin-1-yl)pyridin-3-yl)oxy)pyridin-4-yl)methyl)piperidin-4-yl)methyl methylcarbamate] | 8.7 | 10 nM | –
CNC(=O)NCC1CCN(Cc2cc(Oc3ccc(N4CCN(C[C@@H](C)O)CC4)nc3)nc(-c3cc(Cl)cc(Cl)c3)c2)CC1 [Example 309, (R)-1-((1-((2-(3,5-dichlorophenyl)-6-((6-(4-(2-hydroxypropyl)piperazin-1-yl)pyridin-3-yl)oxy)pyridin-4-yl)methyl)piperidin-4-yl)methyl)-3-methylurea] | 9.8 | 2.51 nM | –
CNC(=O)NCC1CCN(Cc2cc(Oc3cnc(N4CCN(CCO)CC4)nc3)cc(-c3cc(Cl)cc(Cl)c3)c2)CC1 [Example 313, 1-((1-((3′,5′-dichloro-5-((2-(4-(2-hydroxyethyl)piperazin-1-yl)pyrimidin-5-yl)oxy)-[1,1′-biphenyl]-3-yl)methyl)piperidin-4-yl)methyl)-3-methylurea] | – | 15.8 nM | < 0.158 nM
O=C(O)CCC1CCN(Cc2cc(Oc3ccc(N4CCN(CCO)CC4)nc3)nc(-c3cc(Cl)cc(Cl)c3)c2)CC1 [Example 314, 3-(1-((2-(3,5-dichlorophenyl)-6-((6-(4-(2-hydroxyethyl)piperazin-1-yl)pyridin-3-yl)oxy)pyridin-4-yl)methyl)piperidin-4-yl)propanoic acid] | 8.9 | 31.6 nM | –

Next, values leading:

furin enzyme pIC50 [1] | EC50 [2] | IC50 ([1]; read-out: furin enzyme pIC50 (converted)) | SMILES
10.1 | 20 nM | – | COC(=O)NCC1CCN(Cc2cc(Oc3cnc(N4CCN(CCC(=O)O)[C@@H](C)C4)nc3)nc(-c3cc(Cl)cc(Cl)c3)c2)CC1 [Example 294, (S)-3-(4-(5-((6-(3,5-dichlorophenyl)-4-((4-(((methoxycarbonyl)amino)methyl)piperidin-1-yl)methyl)pyridin-2-yl)oxy)pyrimidin-2-yl)-2-methylpiperazin-1-yl)propanoic acid]
9.5 | 0.794 nM | – | CNC(=O)NCC1CCN(Cc2cc(Oc3cnc(N4CCN(CCC(C)O)CC4)nc3)nc(-c3cc(Cl)cc(Cl)c3)c2)CC1 (stereo not shown) [Example 295, 1-((1-((2-(3,5-dichlorophenyl)-6-((2-(4-(3-hydroxybutyl)piperazin-1-yl)pyrimidin-5-yl)oxy)pyridin-4-yl)methyl)piperidin-4-yl)methyl)-3-methylurea]
9.4 | 5.01 nM | – | COC(=O)CCN1CCN(c2ncc(Oc3cc(CN4CCC(CNC(C)=O)CC4)cc(-c4cc(Cl)cc(Cl)c4)n3)cn2)CC1 [Example 297, methyl 3-(4-(5-((4-((4-(acetamidomethyl)piperidin-1-yl)methyl)-6-(3,5-dichlorophenyl)pyridin-2-yl)oxy)pyrimidin-2-yl)piperazin-1-yl)propanoate]
9.6 | 39.8 nM | – | CC(CC1CCN(Cc2cc(Oc3cnc(N4CCN(C[C@@H](C)O)CC4)nc3)nc(-c3cc(Cl)cc(Cl)c3)c2)CC1)C(=O)O (stereo partly drawn) [Example 301, 3-(1-((2-(3,5-dichlorophenyl)-6-((2-(4-((R)-2-hydroxypropyl)piperazin-1-yl)pyrimidin-5-yl)oxy)pyridin-4-yl)methyl)piperidin-4-yl)-2-methylpropanoic acid]
9.6 | 7.94 nM | – | CC(=O)NCC1CCN(Cc2cc(Oc3cnc(N4CCN(C[C@@H](C)O)CC4)nc3)nc(-c3cc(Cl)cc(Cl)c3)c2)CC1 [Example 302]
9.2 | 2.51 nM | – | CC(=O)NCC1CCN(Cc2cc(Oc3cnc(N4CCN(CC(C)(C)O)CC4)nc3)nc(-c3cc(Cl)cc(Cl)c3)c2)CC1 [Example 303, N-((1-((2-(3,5-dichlorophenyl)-6-((2-(4-(2-hydroxy-2-methylpropyl)piperazin-1-yl)pyrimidin-5-yl)oxy)pyridin-4-yl)methyl)piperidin-4-yl)methyl)acetamide]
8.8 | 2.51 nM | – | CC(=O)NCC1CCN(Cc2cc(Oc3cnc(N4CCN(CC(O)CF)CC4)nc3)nc(-c3cc(Cl)cc(Cl)c3)c2)CC1 (stereo not shown) [Example 304, N-((1-((2-(3,5-dichlorophenyl)-6-((2-(4-(3-fluoro-2-hydroxypropyl)piperazin-1-yl)pyrimidin-5-yl)oxy)pyridin-4-yl)methyl)piperidin-4-yl)methyl)acetamide]
9.4 | 2 nM | – | CNC(=O)OCC1CCN(Cc2cc(Oc3cnc(N4CCN(CCO)CC4)nc3)nc(-c3cc(Cl)cc(Cl)c3)c2)CC1 [Example 307, (1-((2-(3,5-dichlorophenyl)-6-((2-(4-(2-hydroxyethyl)piperazin-1-yl)pyrimidin-5-yl)oxy)pyridin-4-yl)methyl)piperidin-4-yl)methyl methylcarbamate]
9.3 | 12.6 nM | – | CNC(=O)OCC1CCN(Cc2cc(Oc3cnc(N4CCN(C[C@@H](C)O)CC4)nc3)nc(-c3cc(Cl)cc(Cl)c3)c2)CC1 [Example 308, (R)-(1-((2-(3,5-dichlorophenyl)-6-((2-(4-(2-hydroxypropyl)piperazin-1-yl)pyrimidin-5-yl)oxy)pyridin-4-yl)methyl)piperidin-4-yl)methyl methylcarbamate]
9.6 | 3.98 nM | – | CNC(=O)NCC1CCN(Cc2cc(Oc3cnc(N4CCN(C[C@@H](C)O)CC4)nc3)nc(-c3cc(Cl)cc(Cl)c3)c2)CC1 [Example 310, (R)-1-((1-((2-(3,5-dichlorophenyl)-6-((2-(4-(2-hydroxypropyl)piperazin-1-yl)pyrimidin-5-yl)oxy)pyridin-4-yl)methyl)piperidin-4-yl)methyl)-3-methylurea]
8.9 | 15.8 nM | – | COC(=O)NCC1CCN(Cc2cc(Oc3cnc(N4CCN(CCO)CC4)nc3)nc(-c3cc(Cl)cc(Cl)c3)c2)CC1 [Example 311, methyl ((1-((2-(3,5-dichlorophenyl)-6-((2-(4-(2-hydroxyethyl)piperazin-1-yl)pyrimidin-5-yl)oxy)pyridin-4-yl)methyl)piperidin-4-yl)methyl)carbamate]
9.7 | 15.8 nM | – | COC(=O)NCC1CCN(Cc2cc(Oc3cnc(N4CCN(C[C@@H](C)O)CC4)nc3)nc(-c3cc(Cl)cc(Cl)c3)c2)CC1 [Example 312, (R)-methyl ((1-((2-(3,5-dichlorophenyl)-6-((2-(4-(2-hydroxypropyl)piperazin-1-yl)pyrimidin-5-yl)oxy)pyridin-4-yl)methyl)piperidin-4-yl)methyl)carbamate]
9.2 | 15.8 nM | – | CC(=O)NCC1CCN(Cc2cc(Oc3cnc(N4CCN(CCO)CC4)nc3)nc(-c3cc(F)cc(Cl)c3)c2)CC1 [Example 315, N-((1-((2-(3-chloro-5-fluorophenyl)-6-((2-(4-(2-hydroxyethyl)piperazin-1-yl)pyrimidin-5-yl)oxy)pyridin-4-yl)methyl)piperidin-4-yl)methyl)acetamide]
10.2 | 100 nM | – | CC(=O)NCC1CCN(Cc2cc(Oc3cnc(N4CCN(CC(O)C(=O)O)CC4)nc3)nc(-c3cc(Cl)cc(Cl)c3)c2)CC1 (stereo not shown) [Example 316, 3-(4-(5-((4-((4-(acetamidomethyl)piperidin-1-yl)methyl)-6-(3,5-dichlorophenyl)pyridin-2-yl)oxy)pyrimidin-2-yl)piperazin-1-yl)-2-hydroxypropanoic acid]
